Measured values published in patent US12433875B2, “(R)-4-(1-(6-(4-(trifluoromethyl)benzyl)-6-azaspiro[2.5]octane-5-carboxamido)-cyclopropyl) benzoic acid or its salt also in polymorphic form a for use in the prevention of heterotopic ossification” (ROTTAPHARM BIOTECH S.R.L., priority 2019, dated 2025).

What was measured:
[1] = test system: human osteoblasts from patients with Osteoarthritis; experiment: Pathological osteoblast proliferation induced by IL-1β, MTT assay; assay type: cell-based; settings: IL-1β 2 ng/ml; time course 24 h, 6, 9 and 14 days; low concentrations; FIG. 11
Experimental: Human osteoblasts were purified from material obtained from patients undergoing knee replacement. Trabecular bone cells were isolated by spontaneous outgrowth culture methods. Purified osteoblasts were stimulated with IL-1β 2 ng/ml. Osteoblast proliferation was studied by MTT analysis in time course experiments (24 h, 6, 9, and 14 days). The form A of the sodium salt of (R)-4-(1-(6-(4-(trifluoromethyl)benzyl)-6-azaspiro[2.5]octane-5-carboxamido)cyclopropyl)benzoic acid resulted to be extremely effective in preventing in vitro osteoblast proliferation stimulated by IL1b.
This model has been performed to understand if the compound of the invention could correct the pathological hyperproliferation of osteoblasts taken from patients suffering from degenerative pathologies eventually resulting in a total joint replacement surgical procedure.
Trabecular bone of the tibial plateau was obtained from patients with Osteoarthritis (OA) undergoing joint replacement surgery. This material was purchased from Alphenyx (Marseille, France). […] The cell proliferation was analysed in a time course protocol by MTT assay. […] MTT was a tetrazolium salt especially useful to quantify living metabolically active cells. […] The plate was then read at λ=540 nm. […]

[2] = test system: PBMC's from healthy volunteers (Th17 IL-17F memory cells); experiment: Human T-helper (Th) cell polarization, flow cytometry; assay type: cell-based; settings: 100 nM; rIL-2 and rIL-21 5 ng/ml, anti-CD3 and anti-CD28 1.5 ng/ml, PGE2 30 nM, 48 hour; FIG. 12
Experimental: FIG. 12a is the spydergram illustrating the preferential inhibitory effect of the form A of the sodium salt of (R)-4-(1-(6-(4-(trifluoromethyl)benzyl)-6-azaspiro[2.5]octane-5-carboxamido)cyclopropyl)benzoic acid on Th17 polarization towards Th17 IL-17F memory cells induced by a stimulation with rIL-2 and rIL-21 (both at 5 ng/ml) in combination with anti-CD3 and anti-CD28 (both at 1.5 ng/ml) co-stimulated with PGE2 (30 nM) over a 48 hour. Stimulated cells were normalized to 100%.
FIG. 12b represents the percent of Th17 IL-17F memory cell stimulation (mean±sem) of cells taken by individual donors vs. their baseline levels in the absence or in the presence of 100 nM form A of the sodium salt of (R)-4-(1-(6-(4-(trifluoromethyl)benzyl)-6-azaspiro[2.5]octane-5-carboxamido)cyclopropyl)benzoic acid.
In this model the ability of the Form A of the sodium salt of (R)-4-(1-(6-(4-(trifluoromethyl)benzyl)-6-azaspiro[2.5]octane-5-carboxamido)cyclopropyl)benzoic acid to interacts with the immunological features able to influence pathological bone formation was studied. Specifically, the effect of the Form A of the sodium salt of (R)-4-(1-(6-(4-(trifluoromethyl)benzyl)-6-azaspiro[2.5]octane-5-carboxamido)cyclopropyl)benzoic acid on the Th-cell polarization in human Tcells stimulated by inflammatory agents was studied. […]

O=C([O-])c1ccc(C2(NC(=O)[C@H]3CC4(CCN3Cc3ccc(C(F)(F)F)cc3)CC4)CC2)cc1.[Na+] [Form A, sodium (R)-4-(1-(6-(4-(trifluoromethyl)benzyl)-6-azaspiro[2.5]octane-5-carboxamido)cyclopropyl)benzoate]
osteoblast proliferation (MTT) [1]: able to dose-dependently counteract osteoblast proliferation | polarization of Th17 cells towards IL-17F producing population (Th17 IL-17F memory cells) [2]: reduce significantly the polarization of Th17 cells towards a population capable to produce IL-17F
